{"source": "patent US20160272935A1", "about": "“Method of improving the yield of algae production” (RELIANCE INDUSTRIES LIMITED, priority 2013, published 2016)", "key": {"diatoms and algae": {"test_system": "diatoms and algae", "assay": "Similar trials with other urea cycle pathway inhibitors in mixed environment of diatoms and algae", "settings": "no details given"}, "algae [1]": {"test_system": "algae", "assay": "Pond (natural habitat) trial with urea cycle pathway inhibitor, cellometer cell count: algae", "settings": "25 mM added to pond, end of 2 month span; day 1 count 1000 cells/meter", "procedure": "(§1) Another experiment was carried out in a natural habitat i.e. a pond consisting of a mixed environment of algae and diatoms. At Day 1 using a cellometer technique the cell counts of algae and diatoms was carried out.\n(§2) A urea cycle pathway inhibitor, namely Tris 25 mM was added to the pond.\n(§3) Periodic cell count readings were carried out for a span of two months. The diatom and the algal cell count were then determined using the cellometer technique at the end of the 2 month span."}, "diatoms [2]": {"test_system": "diatoms", "assay": "Pond (natural habitat) trial with urea cycle pathway inhibitor, cellometer cell count: diatoms", "parameters": "species or system diatom", "settings": "25 mM added to pond", "procedure": "as §1, §2, §3"}, "algae [3]": {"test_system": "algae", "assay": "Mixed algae/diatom culture with urea cycle pathway inhibitor, cellometer cell count: algae", "format": "cell-based", "settings": "1 mM inhibitor", "procedure": "(§4) A control was established containing equal quantities of algae and diatoms. Similarly a test was also established containing the same equal quantities of algae and diatoms along with 1 mM of urea cycle pathway inhibitor namely, Saccharopine.\n(§5) At Day 1 using a cellometer technique the cell counts of algae and diatoms in both the control and the test was carried out.\n(§6) Both the control and the test were then incubated for 4 days in similar optimum conditions with periodic checking for cell counts in both the control and the test vessels.\n(§7) The diatom and the algal cell count was then determined using the cellometer technique at the end of 4th day."}, "diatoms [4]": {"test_system": "diatoms", "assay": "Mixed algae/diatom culture with urea cycle pathway inhibitor, cellometer cell count: diatoms", "format": "cell-based", "settings": "1 mM inhibitor", "procedure": "as §4, §5, §6, §7"}}, "data": [{"smiles": "O=S(=O)(O)CCN1CCN(CCO)CC1", "note": "[hepes]", "values": [{"measurement": "Outcome of similar trials (diatom inhibition and algal growth)", "setting": "diatoms and algae", "result": "equally successful results"}]}, {"smiles": "O=C([O-])c1ccccc1.[Na+]", "note": "[sodium benzoate]", "values": [{"measurement": "Outcome of similar trials (diatom inhibition and algal growth)", "setting": "diatoms and algae", "result": "equally successful results"}]}, {"smiles": "N", "note": "[ammonia]", "values": [{"measurement": "Outcome of similar trials (diatom inhibition and algal growth)", "setting": "diatoms and algae", "result": "equally successful results"}]}, {"smiles": "NC(CO)(CO)CO", "note": "[Tris]", "values": [{"measurement": "Cell count at Day 60 Algae", "setting": "algae [1]", "result": 5300, "unit": "cells/meter"}, {"measurement": "Outcome of similar trials (diatom inhibition and algal growth)", "setting": "diatoms and algae", "result": "equally successful results"}, {"measurement": "Diatom cell count of the pond reduced, as compared to the cell count of diatoms on Day 1", "setting": "diatoms [2]; 2 months", "result": 71, "unit": "%"}, {"measurement": "Cell count at Day 60 Diatom", "setting": "diatoms [2]; end of 2 month span, day 1 count 2000 cells/meter", "result": 580, "unit": "cells/meter"}]}, {"smiles": "NCCCC[C@H](N)C(=O)O", "note": "[lysine]", "values": [{"measurement": "Outcome of similar trials (diatom inhibition and algal growth)", "setting": "diatoms and algae", "result": "equally successful results"}]}, {"smiles": "N[C@@H](CCCCN[C@@H](CCC(=O)O)C(=O)O)C(=O)O", "note": "[Saccharopine]", "values": [{"measurement": "Day 4 (Cell Count) Inhibitor Algae", "setting": "algae [3]; after 4 days incubation, control 119, day 1 count 100", "result": 450}, {"measurement": "Day 1 (Cell count) Inhibitor Algae", "setting": "algae [3]; initial count at day 1", "result": 100}, {"measurement": "Outcome of similar trials (diatom inhibition and algal growth)", "setting": "diatoms and algae", "result": "equally successful results"}, {"measurement": "Day 4 (Cell Count) Inhibitor Diatom", "setting": "diatoms [4]; after 4 days incubation, control 842, day 1 count 200", "result": 62}, {"measurement": "Diatom cell count reduction from day 1", "setting": "diatoms [4]; day 4", "result": 69, "unit": "%"}, {"measurement": "Day 1 (Cell count) Inhibitor Diatom", "setting": "diatoms [4]; initial count at day 1", "result": 200}]}, {"smiles": "CCCCCCCCCCCCCCCC(=O)SCCNC(=O)CCNC(=O)[C@H](O)C(C)(C)COP(=O)(O)OP(=O)(O)OC[C@H]1O[C@@H](n2cnc3c(N)ncnc32)[C@H](O)[C@@H]1OP(=O)(O)O", "note": "[palmitoyl CoA]", "values": [{"measurement": "Outcome of similar trials (diatom inhibition and algal growth)", "setting": "diatoms and algae", "result": "equally successful results"}]}]}
